The values that follow come from patent US10392368B2, “Pyrazolo and triazolo bicyclic compounds as JAK kinase inhibitors” (THERAVANCE BIOPHARMA R&D IP, LLC, priority 2017, dated 2019).

Read-outs that look alike come from different tables or passages of the source. Some results are limits rather than exact numbers.

For one assay, the target named is T1, JAK3 (Homo sapiens, UniProt P52333).
T1 sequence (P52333 1-1124): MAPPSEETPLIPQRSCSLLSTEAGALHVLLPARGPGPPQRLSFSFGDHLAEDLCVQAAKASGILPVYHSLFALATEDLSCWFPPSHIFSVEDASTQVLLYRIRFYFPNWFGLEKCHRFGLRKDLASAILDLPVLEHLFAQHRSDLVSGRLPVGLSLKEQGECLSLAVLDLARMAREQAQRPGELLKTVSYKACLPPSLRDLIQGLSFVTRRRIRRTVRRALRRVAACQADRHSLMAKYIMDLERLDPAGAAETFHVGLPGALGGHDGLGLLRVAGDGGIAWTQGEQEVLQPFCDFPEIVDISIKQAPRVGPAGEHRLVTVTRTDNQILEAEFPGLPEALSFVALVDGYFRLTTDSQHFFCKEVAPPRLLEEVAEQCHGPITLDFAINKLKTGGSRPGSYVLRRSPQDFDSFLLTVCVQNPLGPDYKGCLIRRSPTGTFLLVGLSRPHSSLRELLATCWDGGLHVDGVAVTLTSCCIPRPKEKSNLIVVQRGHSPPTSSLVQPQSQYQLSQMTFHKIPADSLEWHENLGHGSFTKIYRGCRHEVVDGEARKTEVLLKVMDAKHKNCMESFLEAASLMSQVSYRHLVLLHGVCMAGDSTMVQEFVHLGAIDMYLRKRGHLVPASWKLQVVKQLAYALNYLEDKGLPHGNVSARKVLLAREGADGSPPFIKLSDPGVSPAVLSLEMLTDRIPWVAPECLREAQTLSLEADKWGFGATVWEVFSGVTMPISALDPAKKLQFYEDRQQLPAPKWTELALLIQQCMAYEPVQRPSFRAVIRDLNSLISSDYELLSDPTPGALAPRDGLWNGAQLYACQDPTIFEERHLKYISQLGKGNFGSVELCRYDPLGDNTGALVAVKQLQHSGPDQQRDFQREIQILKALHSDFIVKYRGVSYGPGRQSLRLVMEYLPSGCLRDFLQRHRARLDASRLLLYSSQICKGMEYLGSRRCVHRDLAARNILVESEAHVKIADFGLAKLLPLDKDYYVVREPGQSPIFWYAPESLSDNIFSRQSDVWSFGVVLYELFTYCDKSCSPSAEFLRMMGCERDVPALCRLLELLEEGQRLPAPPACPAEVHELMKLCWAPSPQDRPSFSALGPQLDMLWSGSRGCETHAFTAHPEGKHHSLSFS
The assay is described as follows: Biochemical JAK3 kinase assay (LanthaScreen). Also on record: GST; purchased Life Technologies. The conditions noted are these: for Ki: read-out: JAK 3 (pKi) (converted). The method, boiled down:
(§1)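 GST-JAK + GFP-STAT1 peptide + cpd, 1 h preinc RT; ATP start, 1% DMSO, 1 h RT; stop 10 mM EDTA + 2 nM Tb-anti-pSTAT1; 1 h; TR-FRET 520/495. % inhib vs DMSO/background → IC50 (4-PL) → pKi (Cheng-Prusoff).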
For orientation: In TR-FRET formats the signal depends on donor and acceptor labels being close together.

The test system of assay [1] is IL-2 stimulated pSTAT5 in Tall-1 T cells. The assay is described as follows: Cellular JAK3 potency assay: inhibition of IL-2 stimulated pSTAT5 in Tall-1 T cells. Type of assay: cell-based, human. The conditions noted are these: for IC50: Homo sapiens, read-out: Tall-1 (pIC50) (converted). The method, boiled down: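 Tall-1 human T cells (45,000/well) in phenol red-free DMEM with 10% FBS were preincubated with compound 1 h at 37 °C, then stimulated with IL-2 (final 300 ng/ml) for 30 min. Lysate pSTAT5 read by AlphaLisa; IC50 from inhibition curves, reported as pIC50 (mean±SD).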

The next assay addresses T2, JAK1 (Homo sapiens, UniProt P23458).
T2 construct: GST; purchased Life Technologies
The experiment in a line: Biochemical JAK1 kinase assay (LanthaScreen). The conditions noted are these: for Ki: read-out: JAK 1 (pKi) (converted). An outline of the steps: as §1

Where [2] appears, read: selectivity JAK3 over JAK1, difference of pKi.
Setting [3] is: IL-2 stimulated pSTAT5, Tall-1 T cells.
[4] abbreviates: TALL-1, IL-2 stimulated pSTAT5, Tall-1 T cells.
Where [5] appears, read: selectivity: difference of pKi JAK3 and pKi JAK1.
The mark [6] stands for this setting: TALL-1, IL-2 stimulated pSTAT5 in Tall-1 T cells.
[7] abbreviates: IL-2 stimulated pSTAT5 in Tall-1 T cells.

T2 sequence (P23458 whole entry): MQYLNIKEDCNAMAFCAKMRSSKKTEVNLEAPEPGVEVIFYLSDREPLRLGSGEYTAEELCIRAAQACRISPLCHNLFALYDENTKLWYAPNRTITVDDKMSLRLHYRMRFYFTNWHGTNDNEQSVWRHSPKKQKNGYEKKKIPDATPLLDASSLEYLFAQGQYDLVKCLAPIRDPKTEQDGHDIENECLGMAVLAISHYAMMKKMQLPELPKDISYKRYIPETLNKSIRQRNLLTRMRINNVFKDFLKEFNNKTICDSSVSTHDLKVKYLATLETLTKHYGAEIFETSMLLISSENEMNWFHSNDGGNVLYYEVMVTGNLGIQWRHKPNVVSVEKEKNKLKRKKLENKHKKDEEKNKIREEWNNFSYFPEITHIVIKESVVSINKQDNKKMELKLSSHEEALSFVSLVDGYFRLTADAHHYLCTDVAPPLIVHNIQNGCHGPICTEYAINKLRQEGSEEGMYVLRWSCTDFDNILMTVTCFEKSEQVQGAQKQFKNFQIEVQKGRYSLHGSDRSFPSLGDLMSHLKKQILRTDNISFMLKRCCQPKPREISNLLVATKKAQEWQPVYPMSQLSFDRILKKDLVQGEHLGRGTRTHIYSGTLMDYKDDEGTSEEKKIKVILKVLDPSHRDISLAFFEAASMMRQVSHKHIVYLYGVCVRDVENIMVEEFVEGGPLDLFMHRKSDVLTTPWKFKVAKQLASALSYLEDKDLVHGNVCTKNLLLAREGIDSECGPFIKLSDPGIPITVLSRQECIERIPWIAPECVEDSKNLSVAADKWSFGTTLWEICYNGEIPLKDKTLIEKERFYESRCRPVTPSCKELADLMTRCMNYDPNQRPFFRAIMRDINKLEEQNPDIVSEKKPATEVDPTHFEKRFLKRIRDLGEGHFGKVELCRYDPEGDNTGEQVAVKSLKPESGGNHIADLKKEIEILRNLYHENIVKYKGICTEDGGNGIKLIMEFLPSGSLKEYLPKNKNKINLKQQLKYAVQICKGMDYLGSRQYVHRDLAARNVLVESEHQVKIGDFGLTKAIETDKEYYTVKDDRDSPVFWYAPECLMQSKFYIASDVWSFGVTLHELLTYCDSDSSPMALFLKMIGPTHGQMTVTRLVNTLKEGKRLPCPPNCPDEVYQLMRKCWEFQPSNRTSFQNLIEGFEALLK

Regarding `C=CC(=O)N1C2CCC1CC(Oc1nc(-c3ccc(O)cc3)nc3[nH]ncc13)C2` (centres unmarked) [Compound 9-11], the “JAK 3 (pKi)” value on JAK3 is “A (a pKi value≥10 (Ki≤0.1 nM))”. Besides, at JAK3 (setting [2]), the “JAK3 (pKi)-JAK1 (pKi)” value is reported as “A (a value of 3 or above)”. The “Tall-1 (pIC50)” value in assay [1] (setting [3]) was “B (a pIC50 value between 6.7 (included) and 7.5 (IC50 between 200 nM and 32 nM))”. For the same compound, the “JAK 1 (pKi)” value at JAK1 was “E (a pKi value of 7 or below (Ki of 100 nM or above))”.
For `C=CC(=O)N1CCCC(Oc2cc(-c3ccc(O)c(F)c3)nc3[nH]ncc23)C1` (centres unmarked) [Compound 8-8], the “JAK 3 (pKi)” value on JAK3 is “A (a pKi value≥10 (Ki≤0.1 nM))”. For the same compound, the “JAK3 (pKi)-JAK1 (pKi)” value at JAK3 (setting [2]) is listed as “A (a value of 3 or above)”. Also, the “Tall-1 (pIC50)” value in assay [1] (setting [3]) is “B (a pIC50 value between 6.7 (included) and 7.5 (IC50 between 200 nM and 32 nM))”. The “JAK 1 (pKi)” value at JAK1 is listed as “E (a pKi value of 7 or below (Ki of 100 nM or above))”.
Consider `CN(C)C/C=C/C(=O)N1CCC(Oc2cc(-c3ccc(O)c(Cl)c3)cc3[nH]ncc23)CC1` [Compound 6-19], for which the Ki on JAK3 is 0.1 to 1 nM; at JAK1 it was 10 to 100 nM. The “JAK3 (pKi)-JAK1 (pKi)” value on JAK3 (setting [2]) was “B (a value of 2.3 to 3)”. In assay [1] (setting [4]), the IC50 was 31.6 to 200 nM.
Regarding `C#CC(=O)N1CC(COc2cc(-c3ccc(O)cc3)cc3[nH]ncc23)C1` [Compound 3-84], the Ki was < 0.1 nM on JAK3 and > 100 nM at JAK1. Also, the “JAK3 (pKi)-JAK1 (pKi)” value on JAK3 (setting [5]) is given as “A (a value of 3 or above)”. Also, the IC50 in assay [1] (setting [6]) was 31.6 to 200 nM.
In the case of `CN(C)C/C=C/C(=O)N1CC[C@H](Oc2cc(-c3ccc(O)cc3)cc3[nH]nc(Cl)c23)C1` [Compound 1-48], at JAK3, the “JAK 3 (pKi)” value is “C (a pKi value between 8 and 9 (Ki between 10 nM and 1 nM))”. Moreover, the “JAK3 (pKi)-JAK1 (pKi)” value on JAK3 (setting [5]) is “B (a value of 2.3 to 3)”. The “Tall-1 (pIC50)” value in assay [1] (setting [7]) was “B (a pIC50 value between 6.7 (included) and 7.5 (IC50 between 200 nM and 32 nM))”. Besides, the “JAK 1 (pKi)” value on JAK1 was “E (a pKi value of 7 or below (Ki of 100 nM or above))”.
With `C=CC(=O)N1CCO[C@H](C(=O)Nc2cc(-c3ccc(O)cc3)cc3[nH]ncc23)C1` [Compound 11-1], the “JAK 3 (pKi)” value at JAK3 was “B (a pKi value between 9 and 10 (Ki between 1 nM and 0.1 nM))”. Further, the “JAK3 (pKi)-JAK1 (pKi)” value on JAK3 (setting [2]) was “A (a value of 3 or above)”. Moreover, the “Tall-1 (pIC50)” value in assay [1] (setting [3]) is on record as “A (a pIC50 value≥7.5 (IC50≤32 nM))”. The “JAK 1 (pKi)” value at JAK1 is “E (a pKi value of 7 or below (Ki of 100 nM or above))”.
On to `C=CC(=O)N1CCC(Oc2cc(-c3ccc(O)cc3)nc3[nH]ncc23)CC1` [Compound 6-11], for which the Ki on JAK3 is < 0.1 nM; on JAK1, > 100 nM. In addition, at JAK3 (setting [2]), the “JAK3 (pKi)-JAK1 (pKi)” value is “A (a value of 3 or above)”. Further, the IC50 in assay [1] (setting [4]) was 31.6 to 200 nM.
The like results for `CN(C)C/C=C/C(=O)N1CCC(Cc2cc(-c3ccc(O)cc3)cc3[nH]ncc23)CC1` [Compound 12-14] were, in that order, 0.1 to 1 nM, > 100 nM, “C (a value of 1.8 to 2.3)” and 200 to 1000 nM.
Turning to `C=CC(=O)N1CC(F)(COc2nc(-c3ccc(O)cc3)cc3[nH]ncc23)C1` [Compound 3-90], the Ki on JAK3 was < 0.1 nM; on JAK1 it was 10 to 100 nM. For the same compound, at JAK3 (setting [5]), the “JAK3 (pKi)-JAK1 (pKi)” value is reported as “B (a value of 2.3 to 3)”. Further, in assay [1] (setting [6]), the IC50 was < 31.6 nM.
For the compound `C=CC(=O)N1CCC(Nc2cc(-c3ccc(O)cc3)cc3[nH]ncc23)C(F)(F)C1` (centres unmarked) [Compound 7-6], the “JAK 3 (pKi)” value on JAK3 is “A (a pKi value≥10 (Ki≤0.1 nM))”. Moreover, the “JAK3 (pKi)-JAK1 (pKi)” value on JAK3 (setting [2]) is reported as “B (a value of 2.3 to 3)”. For the same compound, the “Tall-1 (pIC50)” value in assay [1] (setting [3]) was “A (a pIC50 value≥7.5 (IC50≤32 nM))”. The “JAK 1 (pKi)” value at JAK1 was “D (a pKi value between 7 and 8 (Ki between 100 nM and 10 nM))”.
Turning to `CN(C)C/C=C/C(=O)N1CC(Oc2cc(-c3ccc(O)cc3)cc3[nH]ncc23)(C2CC2)C1` [Compound 5-13], the “JAK 3 (pKi)” value at JAK3 was “B (a pKi value between 9 and 10 (Ki between 1 nM and 0.1 nM))”. In addition, the “JAK3 (pKi)-JAK1 (pKi)” value at JAK3 (setting [5]) was “B (a value of 2.3 to 3)”. Also, the “Tall-1 (pIC50)” value in assay [1] (setting [7]) was “B (a pIC50 value between 6.7 (included) and 7.5 (IC50 between 200 nM and 32 nM))”. Further, on JAK1, the “JAK 1 (pKi)” value was “E (a pKi value of 7 or below (Ki of 100 nM or above))”.
